pEC50: −log10 of the molar value.

The assay concerns MOLM-13 cells. In words: Caspase cleavage assay (Caspase3, 7 activation). The format is cell-based. The settings on record: Homo sapiens, 16 h treatment, caspase substrate Z-DEVD-R110, read-out: c* Concentration at which 50% of the maximum signal was achieved (caspase activation). The protocol:
Caspase3, 7 Activation. MOLM-13 cells (30,000 cells/well) were plated in black 96-well plates (Corning Cat. #3603) in 40 μL of RPMI media, and left in an incubator (37° C., 5% CO2) for up to 24 h. Cells were treated for 16 h with compounds or DMSO (control) at desired concentrations in 50 μL of media. Drugs were added in triplicate wells. Following exposure of cells to Hsp70 inhibitors, 50 μL of buffer containing 10 mM HEPES (pH 7.5), 2 mM EDTA, 0.1% CHAPS and the caspase substrate Z-DEVD-R110 at 25 μM was added to each well. Plates were incubated until the signal stabilized and then the fluorescence signal of each well was measured in an Analyst GT microplate reader. The percentage increase in apoptotic cells was calculated by comparison of the fluorescence reading obtained from treated versus control cells.
Turning to `C#CCCCCN1CCN(c2ncc(Sc3ccc(C(N)=O)cc3)c(OCc3cccc(N(C)C)c3)n2)CC1` [185e, 4-((4-((3-(Dimethylamino)benzyl)oxy)-2-(4-(hex-5-yn-1-yl)piperazin-1-yl)pyrimidin-5-yl)thio)benzamide], the pEC50 was over 6.70. For `COc1cccc(COc2nc(N3CCOCC3)ncc2Sc2ccc(C(N)=O)cc2)c1` [190a, 4-((4-((3-Methoxybenzyl)oxy)-2-morpholinopyrimidin-5-yl)thio)benzamide], the pEC50 is 6.40 to 6.70. On to `COc1cccc(COc2nc(N3CCN(C(C)C)CC3)ncc2Sc2ccc(C(N)=O)cc2)c1` [190b, 4-((2-(4-Isopropylpiperazin-1-yl)-4-((3-methoxybenzyl)oxy)pyrimidin-5-yl)thio)benzamide], for which the pEC50 is 6.40 to 6.70.

For the molecule `COc1cccc(COc2nc(N3CC[C@@H](N(C)C)C3)ncc2Sc2ccc(C(N)=O)cc2)c1` [190e, (R)-4-((2-(3-(dimethylamino)pyrrolidin-1-yl)-4-((3-methoxybenzyl)oxy)pyrimidin-5-yl)thio)benzamide], the pEC50 was over 6.70. To `COc1cccc(COc2nc(N(C)CCN(C)C)ncc2Sc2ccc(C(N)=O)cc2)c1` [190g, 4-((2-((2-(Dimethylamino)ethyl)(methyl)amino)-4-((3-methoxybenzyl)oxy)pyrimidin-5-yl)thio)benzamide] belongs at most 5.92; to `COc1cccc(COc2nc(N3CCCN(C)CC3)ncc2Sc2ccc(C(N)=O)cc2)c1` [190h], at most 5.92; to `C#CCCCCN1CCN(c2ncc(Sc3ccc(C(N)=O)cc3)c(OCc3cccc(OC)c3)n2)CC1` [190j, 4-((2-(4-(Hex-5-yn-1-yl)piperazin-1-yl)-4-((3-methoxybenzyl)oxy)pyrimidin-5-yl)thio)benzamide], over 6.70.

With `C#CCCCN1CCN(c2ncc(Sc3ccc(C(N)=O)cc3)c(OCc3cccc(OC)c3)n2)CC1` [190k, 4-((4-((3-Methoxybenzyl)oxy)-2-(4-(pent-4-yn-1-yl)piperazin-1-yl)pyrimidin-5-yl)thio)benzamide], the pEC50 is over 6.70. For `COc1cccc(COc2nc(N3CC(N(C)C)C3)ncc2Sc2ccc(C(N)=O)cc2)c1` [190m, 4-((2-(3-(Dimethylamino)azetidin-1-yl)-4-((3-methoxybenzyl)oxy)pyrimidin-5-yl)thio)benzamide], the pEC50 was over 6.70. As to `C#CC(C)N1CCN(c2ncc(Sc3ccc(C(N)=O)cc3)c(OCc3cccc(OC)c3)n2)CC1` (stereo not shown) [190n, 4-((2-(4-(But-3-yn-2-yl)piperazin-1-yl)-4-((3-methoxybenzyl)oxy)pyrimidin-5-yl)thio)benzamide], the pEC50 was 6.40 to 6.70. As for `C=CCN1CCN(c2ncc(Sc3ccc(C(N)=O)cc3)c(OCc3cccc(OC)c3)n2)CC1` [190o, 4-((2-(4-Allylpiperazin-1-yl)-4-((3-methoxybenzyl)oxy)pyrimidin-5-yl)thio)benzamide], the pEC50 is over 6.70.

`COc1cccc(COc2nc(N3CCN(C4CC4)CC3)ncc2Sc2ccc(C(N)=O)cc2)c1` [190p, 4-((2-(4-Cyclopropylpiperazin-1-yl)-4-((3-methoxybenzyl)oxy)pyrimidin-5-yl)thio) benzamide]: the pEC50 was over 6.70. On to `COc1cccc(COc2nc(N3CCN(CC4CC4)CC3)ncc2Sc2ccc(C(N)=O)cc2)c1` [190q, 4-((2-(4-(Cyclopropylmethyl)piperazin-1-yl)-4-((3-methoxybenzyl)oxy)pyrimidin-5-yl)thio)benzamide], for which the pEC50 is over 6.70. For `COc1cccc(COc2nc(N3CCN(C4COC4)CC3)ncc2Sc2ccc(C(N)=O)cc2)c1` [190r, 4-((4-((3-Methoxybenzyl)oxy)-2-(4-(oxetan-3-yl)piperazin-1-yl)pyrimidin-5-yl)thio)benzamide] the value was 6.40 to 6.70; for `COc1cccc(COc2nc(N3CCN(C)C(=O)C3)ncc2Sc2ccc(C(N)=O)cc2)c1` [190t, 4-((4-((3-Methoxybenzyl)oxy)-2-(4-methyl-3-oxopiperazin-1-yl)pyrimidin-5-yl)thio) benzamide], over 6.70. As to `COc1cccc(COc2nc(N3CCN(Cc4ccco4)CC3)ncc2Sc2ccc(C(N)=O)cc2)c1` [190u, 4-((2-(4-(Furan-2-ylmethyl)piperazin-1-yl)-4-((3-methoxybenzyl)oxy)pyrimidin-5-yl)thio)benzamide], the pEC50 was over 6.70.

Regarding `COc1cccc(COc2nc(N3CCN(Cc4nccs4)CC3)ncc2Sc2ccc(C(N)=O)cc2)c1` [190v, 4-((4-((3-Methoxybenzyl)oxy)-2-(4-(thiazol-2-ylmethyl)piperazin-1-yl)pyrimidin-5-yl)thio)benzamide], the pEC50 is over 6.70. In the case of `CN1CCN(c2ncc(Sc3ccc(N)cc3)c(OCc3ccccc3)n2)CC1` [compound 10, 4-(4-(Benzyloxy)-2-(4-methylpiperazin-1-yl)pyrimidin-5-ylthio)aniline], the pEC50 is 6.00 to 6.40. On to `COc1ccc(Sc2cnc(N3CCN(C)CC3)nc2OCc2ccccc2)cc1N` [compound 11, 5-((4-(Benzyloxy)-2-(4-methylpiperazin-1-yl)pyrimidin-5-yl)thio)-2-methoxyaniline], for which the pEC50 is 6.40 to 6.70.

For the molecule `CN1CCN(c2ncc(Sc3cccnc3N)c(OCc3ccccc3)n2)CC1` [compound 13, 3-((4-(Benzyloxy)-2-(4-methylpiperazin-1-yl)pyrimidin-5-yl)thio)pyridin-2-amine], the pEC50 was 6.00 to 6.40. `CN1CCN(c2ncc(Sc3ccc(C=O)o3)c(OCc3ccccc3)n2)CC1` [compound 29, 5-((4-(Benzyloxy)-2-(4-methylpiperazin-1-yl)pyrimidin-5-yl)thio)furan-2-carbaldehyde]: the pEC50 was 6.00 to 6.40. On to `CC(=O)c1ccc(Sc2cnc(N3CCN(C)CC3)nc2OCc2ccccc2)s1` [compound 30, 1-(5-((4-(Benzyloxy)-2-(4-methylpiperazin-1-yl)pyrimidin-5-yl)thio)thiophen-2-yl)ethanone], for which the pEC50 was 6.00 to 6.40. On to `CC(=O)c1ccc(Sc2cnc(N3CCN(C)CC3)nc2OCc2ccccc2)cc1` [compound 36, 1-(4-((4-(Benzyloxy)-2-(4-methylpiperazin-1-yl)pyrimidin-5-yl)thio)phenyl)ethanone], for which the pEC50 was 5.92 to 6.00.

With `CN1CCN(c2ncc(Sc3ccc(O)cc3)c(OCc3ccccc3)n2)CC1` [compound 37, 4-((4-(Benzyloxy)-2-(4-methylpiperazin-1-yl)pyrimidin-5-yl)thio)phenol], the pEC50 is 6.00 to 6.40. Regarding `CN1CCN(c2ncc(Sc3cccc(C=O)c3)c(OCc3ccccc3)n2)CC1` [compound 43, 3-((4-(Benzyloxy)-2-(4-methylpiperazin-1-yl)pyrimidin-5-yl)thio)benzaldehyde], the pEC50 is 6.00 to 6.40. To `CN1CCN(c2ncc(Sc3ccc(C#N)cc3)c(OCc3ccccc3)n2)CC1` [compound 44, 4-((4-(Benzyloxy)-2-(4-methylpiperazin-1-yl)pyrimidin-5-yl)thio)benzonitrile] belongs 6.00 to 6.40; to `CN1CCN(c2ncc(Sc3ccc(C=O)cc3)c(OCc3ccccc3)n2)CC1` [compound 45, 4-((4-(Benzyloxy)-2-(4-methylpiperazin-1-yl)pyrimidin-5-yl)thio)benzaldehyde], 6.40 to 6.70.

`CN1CCN(c2ncc(Sc3cccc(C#N)c3)c(OCc3ccccc3)n2)CC1` [compound 47, 3-((4-(Benzyloxy)-2-(4-methylpiperazin-1-yl)pyrimidin-5-yl)thio)benzonitrile]: the pEC50 was 6.00 to 6.40.

On to `COC(=O)c1ccc(Sc2cnc(N3CCN(C)CC3)nc2OCc2ccccc2)cc1` [compound 49, Methyl 4-((4-(benzyloxy)-2-(4-methylpiperazin-1-yl)pyrimidin-5-yl)thio)benzoate], for which the pEC50 is 6.40 to 6.70. As to `C=CC(=O)Nc1ccc(Sc2cnc(N3CCN(C)CC3)nc2OCc2ccccc2)cn1` [compound 56, N-(5-((4-(Benzyloxy)-2-(4-methylpiperazin-1-yl)pyrimidin-5-yl)thio)pyridin-2-yl)acrylamide], the pEC50 was at most 5.92. `CN1CCN(c2ncc(Sc3ccc(NC(=O)CN)cc3)c(OCc3ccccc3)n2)CC1` [compound 58, 2-Amino-N-(4-((4-(benzyloxy)-2-(4-methylpiperazin-1-yl)pyrimidin-5-yl)thio)phenyl)acetamide]: the pEC50 was 6.00 to 6.40.

`COc1ccc(Sc2cnc(N3CCN(C)CC3)nc2OCc2ccccc2)c(N)c1` [compound 62, 2-((4-(Benzyloxy)-2-(4-methylpiperazin-1-yl)pyrimidin-5-yl)thio)-5-methoxyaniline]: the pEC50 is 6.00 to 6.40. As to `COc1ncc(Sc2cnc(N3CCN(C)CC3)nc2OCc2ccccc2)cc1N` [compound 63, 5-((4-(Benzyloxy)-2-(4-methylpiperazin-1-yl)pyrimidin-5-yl)thio)-2-methoxypyridin-3-amine], the pEC50 was at most 5.92. For `CC(Oc1ccc(Sc2cnc(N3CCN(C)CC3)nc2OCc2ccccc2)cc1)C(N)=O` (stereo not shown) [compound 65, 2-(4-((4-(Benzyloxy)-2-(4-methylpiperazin-1-yl)pyrimidin-5-yl)thio)phenoxy)propanamide] the value was 6.00 to 6.40; for `CN1CCN(c2ncc(Sc3ccc(C(N)=O)cc3)c(OCc3ccccc3)n2)CC1` [compound 66, 4-((4-(Benzyloxy)-2-(4-methylpiperazin-1-yl)pyrimidin-5-yl)thio)benzamide], 6.40 to 6.70; for `CN1CCN(c2ncc(Sc3cccc(C(N)=O)c3)c(OCc3ccccc3)n2)CC1` [compound 67, 3-((4-(Benzyloxy)-2-(4-methylpiperazin-1-yl)pyrimidin-5-yl)thio)benzamide], 6.40 to 6.70. In the case of `CN1CCN(c2ncc(Sc3ccc(F)c(C(N)=O)c3)c(OCc3ccccc3)n2)CC1` [compound 68, 5-((4-(Benzyloxy)-2-(4-methylpiperazin-1-yl)pyrimidin-5-yl)thio)-2-fluorobenzamide], the pEC50 is 5.92 to 6.00.

The values above are taken from patent publication US10160729B2, “Hsp70 modulators and methods for making and using the same” (Memorial Sloan Kettering Cancer Center, priority 2014, dated 2018).
